Experimental data from US20140057915A1, “KINASE INHIBITORS” (TOPIVERT PHARMA LIMITED, priority 2012, published 2014).
Where two headings read alike, the source gives them in different places.

Key:
p38 MAPKα = p38 MAPKα (Homo sapiens, UniProt Q16539); assay: Enzyme binding assay (Kinomescan); conditions: read-out: % Inhibition of kinase binding at 500 nM, p38 MAPKα
Method: (§1) Enzyme Binding Assays (Kinomescan)
(§2) The kinase enzyme binding activities of compounds disclosed herein were determined using a proprietary assay which measures active site-directed competition binding to an immobilized ligand (Fabian, M. A. et al., Nature Biotechnol., 2005, 23:329-336). These assays were conducted by DiscoverX (formerly Ambit; San Diego, Calif.). The percentage inhibition produced by incubation with a test compound is calculated relative to the non-inhibited control.

B-Raf = B-Raf (Homo sapiens, UniProt P15056); assay: Enzyme binding assay (Kinomescan)
Method: as §1, §2

GSK3α = GSK3α (Homo sapiens, UniProt P49840); assay: Enzyme binding assay (Kinomescan); conditions: read-out: % Inhibition of kinase binding at 500 nM, GSK3α
Method: (§3) These assays were conducted by DiscoverX (formerly Ambit; San Diego, Calif.). The percentage inhibition produced by incubation with a test compound is calculated relative to the non-inhibited control.

cSrc = cSrc (Homo sapiens, UniProt P12931); assay: Enzyme binding assay (Kinomescan); conditions: read-out: % Inhibition of kinase binding at 500 nM, cSrc
Method: as §3

[1] = test system: intestinal mucosa biopsies from the inflamed regions of the colon of IBD patients; assay: Human biopsy assay (cytokine release from intestinal mucosa biopsies of IBD/UC patients); assay type: cell-based; conditions: in vitro
Method: Intestinal mucosa biopsies are obtained from the inflamed regions of the colon of IBD patients. The biopsy material is cut into small pieces (2-3 mm) and placed on steel grids in an organ culture chamber at 37° C. in a 5% CO2/95% O2 atmosphere in serum-free media. DMSO control or test compounds at the desired concentration are added to the tissue and incubated for 24 hr in the organ culture chamber. The supernatant is harvested for determination of IL-6, IL-8, IL-1β and TNFα levels by R&D ELISA.

BDF1 mice = assay: TNBS-induced colitis in mice; assay type: in vivo, mouse; conditions: for inflammatory cell infiltrate in the reticular and lamina propria zones / activity in the in vivo model of colonic inflammation (histopathology analysis): TNBS; for activity in the in vivo model of colonic inflammation (histopathology analysis): 2 days; for ulcer grade and epithelial repair compared to the vehicle control: dosed orally at 5 mg/kg
Method: (C) TNBS-Induced Colitis in Mice […] On Day 0 of the study TNBS (200 μL) is administered intra-colonically via a plastic catheter followed by BID dosing of the vehicle, reference or test compound for 2 or 4 days. During the study animals are weighed every day and stool observations are made and recorded as a score, based on stool consistency. At the time of sacrifice on Day 2 (or Day 4) the large intestine is removed and the length and weight recorded. Sections of the colon are taken for either MPO analysis to determine neutrophil infiltration or for histopathology involving scoring to determine disease severity.

[2] = target: T1, human ether a go-go (hERG) channel (Homo sapiens, UniProt Q12809); assay: hERG inhibition (IonWorks patch clamp electrophysiology); assay type: cell-based; conditions: maximum final assay concentration 3 μM
T1 construct: a Chinese Hamster Lung cell line stably expressing the full length hERG channel
Method: Eight-point concentration curves were generated using serial 3-fold dilutions from the maximum final assay concentration (3 μM). Electrophysiological recordings were made from a Chinese Hamster Lung cell line stably expressing the full length hERG channel. Single cell ionic currents were measured in the perforated patch clamp configuration (100 μg/mL) amphotericin) at room temperature (21-23° C.) using an IonWorks Quattro instrument. The internal solution contained (mM): 140 KCl, 1 MgCl2, 1 EGTA, 20 HEPES and was buffered to pH 7.3. The external solution contained (mM):138 NaCl, 2.7 KCl, 0.9 CaCl2, 0.5 MgCl2, 8 Na2HPO4, 1.5 KH2PO4, also buffered to pH 7.3. Cells were clamped at a holding potential of −70 mV for 30 s and then stepped to +40 mV for 1 s. This was followed by a hyperpolarising step of 1s to −30 mV to evoke the hERG tail current. This sequence was repeated 5 times at a frequency of 0.25 Hz. Currents were measured from the tail step at the 5th pulse, and referenced to the holding current. Compounds were then incubated for 6-7 minutes prior to a second measurement of the hERG signal using an identical pulse train. Eight-point concentration curves were generated using serial 3-fold dilutions from the maximum final assay concentration (3 μM).

SCID mice = assay: Adoptive transfer in mice; conditions: mouse
Method: (D) Adoptive Transfer in Mice
On Study day 0, female Balb/C mice are terminated and spleens obtained for CD45RB^high cell isolation (Using SCID IBD cell Separation protocol). Approximately 4×10^5 cells/mL CD45RB^high cells are then injected IP (100 μL/mouse) into female SCID animals. On study day 14, mice are weighed and randomized into treatment groups based on body weight. On Day 21, compounds are administered BID, via oral gavage, in a peanut oil vehicle at the dose levels outlined below and a dose volume of 5 mL/kg. Treatment continues until study day 42, at which point the animals are necropsied 4 hours after am administration. The colon length and weight is recorded and used as a secondary endpoint in the study as a measurement of colon oedema. The colon is then divided into six cross-sections, four of which are used for histopathology scoring (primary endpoint) and two are homogenised for cytokine analysis. Data shown is the % inhibition of the induction window between naïve animals and vehicle animals, where higher inhibition implies closer to the non-diseased, naïve, phenotype.

[3] = Cryopreserved hepatocyte stability; assay type: in vitro ADME; conditions: arithmetic mean of two experiments; for hepatocyte CLint at 0.1 μM: read-out: Mean intrinsic clearance
Method: Cryopreserved Hepatocyte Stability
• Hepatocyte stability assays were performed with incubations of test compounds (0.1 μM initial concentration, n=2) carried out with pooled human, dog and rat cryopreserved hepatocytes from Celsis (Lot numbers RRW, KLI and WAP, respectively) at a cell density of 0.5 million cells/mL. The incubations were performed at 37° C. with 100 μL samples taken from the incubation, at 0, 10, 20, 45 and 90 minutes, and reactions terminated by addition of 100 μL of acetonitrile containing carbamazepine as analytical internal standard. […] Half-life values were calculated from the relationship
T1/2(min)=−0.693/λ • where λ was the slope of the Ln concentration vs time curve. • Standard compounds testosterone, midazolam and 4-methylumbelliferone are included in the assay design. These compounds give an indication of the metabolic capacity of the cryopreserved preparations for both Phase I and Phase II reactions. • In vitro intrinsic clearance (CIint), as μL/min/million cells was calculated by applying the following formula to the half-life values:
CIint(Tissue Clearance) mL/min/kg=[0.693/t½(min)]×[1/hepatocyte concentration(million cells/mL)]×[million cells/g liver]×[g liver/kg body weight]
CIint(Hepatic clearance) mL/min/kg=hepatic blood flow×CIint/(hepatic blood flow+CIint)
Hepatic extraction ratio(Eh)=CIint(Hepatic clearance) mL/min/kg/hepatic blood flow(mL/min/kg)

[4] = human cryopreserved hepatocytes
[5] = pooled cryopreserved hepatocytes, dog cryopreserved hepatocytes
[6] = pooled cryopreserved hepatocytes, rat cryopreserved hepatocytes
[7] = pooled cryopreserved human hepatocytes

Sequence of B-Raf (P15056 whole entry): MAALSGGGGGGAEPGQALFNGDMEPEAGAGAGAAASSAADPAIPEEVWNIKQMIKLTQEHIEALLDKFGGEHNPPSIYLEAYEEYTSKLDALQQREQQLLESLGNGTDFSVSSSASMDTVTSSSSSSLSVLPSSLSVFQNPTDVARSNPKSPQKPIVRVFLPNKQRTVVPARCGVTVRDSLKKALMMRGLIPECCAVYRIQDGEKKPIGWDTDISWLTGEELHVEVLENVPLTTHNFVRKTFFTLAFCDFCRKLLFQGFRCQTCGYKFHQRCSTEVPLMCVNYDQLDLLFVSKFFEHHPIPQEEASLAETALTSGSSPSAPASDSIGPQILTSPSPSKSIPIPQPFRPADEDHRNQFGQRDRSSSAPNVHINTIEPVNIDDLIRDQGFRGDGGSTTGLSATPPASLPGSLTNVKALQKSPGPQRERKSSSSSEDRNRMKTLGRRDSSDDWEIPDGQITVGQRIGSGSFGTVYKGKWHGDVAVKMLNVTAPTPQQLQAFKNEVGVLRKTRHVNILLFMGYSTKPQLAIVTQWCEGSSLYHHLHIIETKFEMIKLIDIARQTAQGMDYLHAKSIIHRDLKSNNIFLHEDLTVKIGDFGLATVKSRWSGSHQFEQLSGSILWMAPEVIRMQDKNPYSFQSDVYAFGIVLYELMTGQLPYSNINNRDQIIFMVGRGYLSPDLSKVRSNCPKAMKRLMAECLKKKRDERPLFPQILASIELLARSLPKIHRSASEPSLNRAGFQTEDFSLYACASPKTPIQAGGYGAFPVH
T1 sequence (Q12809 whole entry): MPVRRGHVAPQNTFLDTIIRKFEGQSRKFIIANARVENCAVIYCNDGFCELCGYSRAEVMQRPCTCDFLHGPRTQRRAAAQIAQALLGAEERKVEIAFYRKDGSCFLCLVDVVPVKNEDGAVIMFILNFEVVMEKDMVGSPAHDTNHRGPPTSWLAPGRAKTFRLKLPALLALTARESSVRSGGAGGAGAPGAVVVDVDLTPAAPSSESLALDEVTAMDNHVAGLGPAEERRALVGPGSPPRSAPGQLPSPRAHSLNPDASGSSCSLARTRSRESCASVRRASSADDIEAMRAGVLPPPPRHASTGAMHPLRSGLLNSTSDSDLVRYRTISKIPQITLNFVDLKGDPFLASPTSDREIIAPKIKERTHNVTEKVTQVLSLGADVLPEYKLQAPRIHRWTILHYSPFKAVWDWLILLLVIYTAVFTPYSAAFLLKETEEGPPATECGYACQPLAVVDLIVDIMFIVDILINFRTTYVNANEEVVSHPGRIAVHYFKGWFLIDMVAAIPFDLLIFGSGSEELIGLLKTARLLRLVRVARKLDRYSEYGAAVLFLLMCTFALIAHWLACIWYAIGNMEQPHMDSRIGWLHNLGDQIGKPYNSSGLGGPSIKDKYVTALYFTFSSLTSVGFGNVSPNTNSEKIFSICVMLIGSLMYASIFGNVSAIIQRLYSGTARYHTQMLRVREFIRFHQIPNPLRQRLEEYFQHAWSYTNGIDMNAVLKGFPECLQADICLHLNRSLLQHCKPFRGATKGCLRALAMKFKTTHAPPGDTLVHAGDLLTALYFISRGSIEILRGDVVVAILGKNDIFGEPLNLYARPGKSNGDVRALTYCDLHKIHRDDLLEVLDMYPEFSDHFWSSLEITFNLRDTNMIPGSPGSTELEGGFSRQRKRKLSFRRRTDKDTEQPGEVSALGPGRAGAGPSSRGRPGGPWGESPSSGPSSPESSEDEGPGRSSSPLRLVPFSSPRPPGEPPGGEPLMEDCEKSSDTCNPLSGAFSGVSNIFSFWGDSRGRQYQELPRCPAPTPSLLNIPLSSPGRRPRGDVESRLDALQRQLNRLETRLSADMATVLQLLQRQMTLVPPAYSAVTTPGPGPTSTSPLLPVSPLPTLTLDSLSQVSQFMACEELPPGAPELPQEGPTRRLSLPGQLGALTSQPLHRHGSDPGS
Sequence of GSK3α (P49840 whole entry): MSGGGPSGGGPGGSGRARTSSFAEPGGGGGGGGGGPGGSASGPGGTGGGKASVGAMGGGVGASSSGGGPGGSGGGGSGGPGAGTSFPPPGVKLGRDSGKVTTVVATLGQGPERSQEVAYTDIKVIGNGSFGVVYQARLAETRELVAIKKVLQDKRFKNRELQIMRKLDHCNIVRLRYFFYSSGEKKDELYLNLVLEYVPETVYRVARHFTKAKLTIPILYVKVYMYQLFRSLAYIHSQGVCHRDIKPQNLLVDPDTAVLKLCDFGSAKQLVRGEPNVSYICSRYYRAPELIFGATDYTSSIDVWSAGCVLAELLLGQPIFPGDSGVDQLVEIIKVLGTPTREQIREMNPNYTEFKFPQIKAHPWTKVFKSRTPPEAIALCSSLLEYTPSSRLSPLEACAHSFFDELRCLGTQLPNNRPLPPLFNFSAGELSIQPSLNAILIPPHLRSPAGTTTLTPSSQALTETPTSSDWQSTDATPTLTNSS
Sequence of p38 MAPKα (Q16539 whole entry): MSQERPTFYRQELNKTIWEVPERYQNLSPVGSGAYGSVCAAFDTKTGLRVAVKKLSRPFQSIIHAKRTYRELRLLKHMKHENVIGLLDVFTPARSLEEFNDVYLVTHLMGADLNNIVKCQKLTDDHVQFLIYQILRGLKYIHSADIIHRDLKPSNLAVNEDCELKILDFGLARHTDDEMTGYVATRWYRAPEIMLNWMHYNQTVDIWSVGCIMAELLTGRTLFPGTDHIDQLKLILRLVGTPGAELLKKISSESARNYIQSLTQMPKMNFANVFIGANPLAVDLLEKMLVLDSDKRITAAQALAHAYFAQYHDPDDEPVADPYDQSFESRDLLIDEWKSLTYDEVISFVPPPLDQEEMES
Sequence of cSrc (P12931 whole entry): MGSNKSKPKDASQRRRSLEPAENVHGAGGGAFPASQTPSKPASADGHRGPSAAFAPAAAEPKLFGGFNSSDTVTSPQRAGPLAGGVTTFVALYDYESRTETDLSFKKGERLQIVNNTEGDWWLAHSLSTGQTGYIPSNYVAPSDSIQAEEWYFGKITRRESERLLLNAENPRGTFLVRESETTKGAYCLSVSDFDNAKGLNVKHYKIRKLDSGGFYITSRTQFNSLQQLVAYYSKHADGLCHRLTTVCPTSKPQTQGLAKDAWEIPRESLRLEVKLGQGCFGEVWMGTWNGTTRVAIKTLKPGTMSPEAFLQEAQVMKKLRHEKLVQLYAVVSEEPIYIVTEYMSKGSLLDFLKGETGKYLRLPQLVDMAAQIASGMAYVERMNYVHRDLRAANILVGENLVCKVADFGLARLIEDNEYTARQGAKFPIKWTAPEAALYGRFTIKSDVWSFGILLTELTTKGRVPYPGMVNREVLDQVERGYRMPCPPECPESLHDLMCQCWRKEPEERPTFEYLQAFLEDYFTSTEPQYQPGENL

SMILES	inhibition at 0.5 µM (p38 MAPKα)	inhibition at 0.5 µM (B-Raf; read-out: % Inhibition of kinase binding at 500 nM, B-Raf)	inhibition at 0.5 µM (GSK3α)	inhibition at 0.5 µM (cSrc)	IL-1b, IL-6 and IL-8 release from biopsies of UC patients [1]	inflammatory cell infiltrate in the reticular and lamina propria zones (BDF1 mice)	activity in the in vivo model of colonic inflammation (histopathology analysis) (BDF1 mice)	ulcer grade and epithelial repair compared to the vehicle control (BDF1 mice)	IC50 [2]	activity in adoptive transfer in vivo model of colonic inflammation (SCID mice)	effect on the binding of the kinase B-Raf to its standard ligand (B-Raf; KINOMEscan)	Mean hepatic extraction ratio (Eh) ([3]; dog cryopreserved hepatocytes)	Mean hepatic extraction ratio (Eh) [3, 4]	hepatocyte CLint at 0.1 μM [3, 5]	hepatocyte CLint at 0.1 μM [3, 6]	hepatocyte CLint at 0.1 μM [3, 7]	Mean hepatic extraction ratio (Eh) ([3]; rat cryopreserved hepatocytes)
COc1cc(Nc2nccc(Oc3ccc(NC(=O)Nc4cc(C(C)C)nn4-c4ccc(C)cc4)c4ccccc34)n2)cc(C(=O)NCCN2CCOCC2)c1 [Example 8, 3-((4-((4-(3-(3-Isopropyl-1-(p-tolyl)-1H-pyrazol-5-yl)ureido)naphthalen-1-yl)oxy)pyrimidin-2-yl)amino)-5-methoxy-N-(2-morpholinoethyl)benzamide]	95%	29%	19%	100%	–	–	–	–	–	–	–	–	–	–	–	–	–
C#Cc1cc(Nc2nccc(Oc3ccc(NC(=O)Nc4cc(C(C)C)nn4-c4ccc(C)cc4)c4ccccc34)n2)cc(C(=O)NCCN2CCOCC2)c1 [Example 46, 3-ethynyl-5-((4-((4-(3-(3-isopropyl-1-(p-tolyl)-1H-pyrazol-5-yl)ureido)naphthalen-1-yl)oxy)pyrimidin-2-yl)amino)-N-(2-morpholinoethyl)benzamide]	–	–	–	–	markedly reduced	marked reduction	significant activity	marked improvements	–	–	–	–	–	–	–	–	–
C#Cc1cc(Nc2nccc(Oc3ccc(NC(=O)Nc4cc(C(C)(C)C)nn4-c4ccc(OC)cc4)c4ccccc34)n2)cc(C(=O)NCCN2CCOCC2)c1 [Example 77, 3-((4-((4-(3-(3-(tert-Butyl)-1-(4-methoxyphenyl)-1H-pyrazol-5-yl)ureido)-naphthalen-1-yl)oxy)pyrimidin-2-yl)amino)-5-ethynyl-N-(2-morpholinoethyl)benzamide]	–	–	–	–	markedly reduced	marked reduction	significant activity	marked improvements	> 3 µM	significant activity	did not have any effect on the binding	0.87	0.69	26 µL/min/1e6 cells	12 µL/min/1e6 cells	16 µL/min/1e6 cells	0.55
C#Cc1cc(Nc2nccc(Oc3ccc(NC(=O)Nc4cc(C(C)(C)C)nn4-c4ccc(N(C)C)cc4)c4ccccc34)n2)cc(C(=O)NCCN2CCOCC2)c1 [Example 80, 3-((4-((4-(3-(3-(tert-Butyl)-1-(4-(dimethylamino)phenyl)-1H-pyrazol-5-yl)ureido)naphthalen-1-yl)oxy)pyrimidin-2-yl)amino)-5-ethynyl-N-(2-morpholinoethyl)-benzamide]	–	–	–	–	–	–	–	–	> 3 µM	–	–	0.73	<0.61	11 µL/min/1e6 cells	< 8 µL/min/1e6 cells	< 11 µL/min/1e6 cells	<0.44
